Experimental data: the NIST ThermoML archive (doi:10.1021/je7001122)
Values joined by “and” are separate entries in the source; they are usually repeats but may differ in a detail not shown here. Equal values may be shown once.

Details: Liquid

CCCCCCCCCC [decane]
Transpiration method
Details | vapor or sublimation pressure [kPa]
323.94 K | 0.9556
353.57 K | 4.252
373.15 K | 10.05
402.36 K | 29.48
402.48 K | 29.36

CCCCCCCCCCCCCCCCCCCCCCCCCCCC [octacosane]
Transpiration method
Details | vapor or sublimation pressure
354.01 K | 2.14e-06 kPa
373.92 K | 1.77e-05 kPa and 1.8e-05 kPa
393.65 K | 0.000122 kPa and 0.000126 kPa
413.5 K | 0.000633 kPa and 0.000651 kPa and 0.00063 kPa
433.32 K | 0.00293 kPa
453.28 K | 0.01264 kPa
473.64 K | 0.04404 kPa
494.8 K | 0.1554 kPa
516.89 K | 0.4272 kPa

CCCCCCCCCCCCCCCCCCCCCCCC [tetracosane]
vapor or sublimation pressure
Details | Diaphragm manometer | Transpiration method
333.46 K | – | 4.3e-06 kPa
353.43 K | – | 4.35e-05 kPa
353.97 K | – | 4.5e-05 kPa
373.17 K | 0.000296 kPa | 0.000307 kPa
373.61 K | 0.000322 kPa | 0.000316 kPa
379.15 K | 0.000531 kPa | 0.000524 kPa
393.2 K | 0.001727 kPa | 0.001725 kPa and 0.001721 kPa
397.55 K | 0.002432 kPa | 0.002406 kPa
414.68 K | 0.008547 kPa | 0.00843 kPa
417.75 K | 0.01055 kPa | 0.0105 kPa
433.1 K | 0.02857 kPa | –
452.6 K | 0.08931 kPa | –
